According to patent publication US8080556B2, “2-amino pyrimidine compounds as potent HSP-90 inhibitors” (Pfizer Inc., priority 2008, dated 2011):
pIC50: −log10 of the molar value.

Tested on: Akt
Assay: Akt Lum
Assay type: cell-based

Row | pIC50 | Structure (SMILES)
1 | 6.95 | Nc1nc2c(c(-c3c(Cl)cc(Cl)cc3OCCn3cc(F)cn3)n1)CN(C(=O)NC1CC1)C2 [Example 10, 2-amino-N-cyclopropyl-4-{2,4-dichloro-6-[2-(4-fluoro-1H-pyrazol-1-yl)ethoxy]phenyl}-5,7-dihydro-6H-pyrrolo[3,4-d]pyrimidine-6-carboxamide]
2 | 6.98 | Nc1nc2c(c(-c3c(Cl)cc(Cl)cc3OCCn3cc(Cl)cn3)n1)CN(C(=O)NC1CC1)C2 [Example 2, 2-amino-N-cyclopropyl-4-{2,4-dichloro-6-[2-(4-chloro-1H-pyrazol-1-yl)ethoxy]phenyl}-5,7-dihydro-6H-pyrrolo[3,4-d]pyrimidine-6-carboxamide]
3 | 5.17 | Nc1nc2c(c(-c3c(Cl)cc(Cl)cc3OCCn3nccc3C(F)(F)F)n1)CN(C(=O)NC1CC1)C2 [Example 14, 2-amino-N-cyclopropyl-4-(2,4-dichloro-6-{2-[5-(trifluoromethyl)-1H-pyrazol-1-yl]ethoxy}phenyl)-5,7-dihydro-6H-pyrrolo[3,4-d]pyrimidine-6-carboxamide]
4 | 7.68 | Cc1cc(Cl)cc(OCCn2cc(F)cn2)c1-c1nc(N)nc2c1CN(C(=O)NC13CC(C1)C3)C2 [Example 7, 2-amino-N-bicyclo[1.1.1]pent-1-yl-4-{4-chloro-2-[2-(4-fluoro-1H-pyrazol-1-yl)ethoxy]-6-methylphenyl}-5,7-dihydro-6H-pyrrolo[3,4-d]pyrimidine-6-carboxamide]
5 | 6.18 | Nc1nc2c(c(-c3c(Cl)cc(Cl)cc3OCCn3ccc(C(F)(F)F)n3)n1)CN(C(=O)NC1CC1)C2 [Example 13, 2-amino-N-cyclopropyl-4-(2,4-dichloro-6-{2-[3-(trifluoromethyl)-1H-pyrazol-1-yl]ethoxy}phenyl)-5,7-dihydro-6H-pyrrolo[3,4-d]pyrimidine-6-carboxamide]
6 | 5.00 | Cc1cc(C(F)(F)F)nn1CCOc1cc(Cl)cc(Cl)c1-c1nc(N)nc2c1CN(C(=O)NC1CC1)C2 [Example 16, 2-amino-N-cyclopropyl-4-(2,4-dichloro-6-{2-[5-methyl-3-(trifluoromethyl)-1H-pyrazol-1-yl]ethoxy}phenyl)-5,7-dihydro-6H-pyrrolo[3,4-d]pyrimidine-6-carboxamide]
7 | 4.74 | Cc1cc(C(F)(F)F)n(CCOc2cc(Cl)cc(Cl)c2-c2nc(N)nc3c2CN(C(=O)NC2CC2)C3)n1 [Example 15, 2-amino-N-cyclopropyl-4-(2,4-dichloro-6-{2-[3-methyl-5-(trifluoromethyl)-1H-pyrazol-1-yl]ethoxy}phenyl)-5,7-dihydro-6H-pyrrolo[3,4-d]pyrimidine-6-carboxamide]
8 | 5.59 | CC(F)(F)CNC(=O)N1Cc2nc(N)nc(-c3c(Cl)cc(Cl)cc3OCCn3cc(C#N)cn3)c2C1 [Example 11, 2-amino-4-{2,4-dichloro-6-[2-(4-cyano-1H-pyrazol-1-yl)ethoxy]phenyl}-N-(2,2-difluoropropyl)-5,7-dihydro-6H-pyrrolo[3,4-d]pyrimidine-6-carboxamide]
9 | 7.28 | Cc1cc(Cl)cc(OCCn2cccn2)c1-c1nc(N)nc2c1CN(C(=O)NC13CC(C1)C3)C2 [Example 3]
10 | 6.76 | Nc1nc2c(c(-c3c(Cl)cc(Cl)cc3OCCn3cc(Br)cn3)n1)CN(C(=O)NC1CC1)C2 [Example 12, 2-amino-4-{2-[2-(4-bromo-1H-pyrazol-1-yl)ethoxy]-4,6-dichlorophenyl}-N-cyclopropyl-5,7-dihydro-6H-pyrrolo[3,4-d]pyrimidine-6-carboxamide]
